Columns and labels:
Test in all cases: relative viability (nuclei count vs DMSO), 5 days (fraction); higher = more cells survive
[1] = tested on: LU99A; details: first compound 4 µM
Outline: (§1)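 Relative viability is defined as nuclei in treated wells over nuclei in vehicle wells. Duplicate plates were run and medians reported. Lung cancer cell lines in 1536-well plates were dosed by pin tool one day after seeding, with one drug or with a fixed anchor-drug dose plus five library-drug doses (not always all listed) in √10 steps, and nuclei were counted after 5 days.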

[2] = tested on: NCI-H1395
Outline: as §1

[3] = tested on: NCI-H1437
Outline: as §1

[4] = tested on: NCI-H1666
Outline: as §1

[5] = tested on: NCI-H1975
Outline: as §1

[6] = tested on: NCI-H2085
Outline: as §1

[7] = tested on: NCI-H2087
Outline: as §1

[8] = tested on: NCI-H2126
Outline: as §1

[9] = tested on: NCI-H2342
Outline: as §1

[10] = tested on: NCI-H358
Outline: as §1

[11] = tested on: NCI-H647
Outline: as §1

[12] = tested on: PC-3 [JPC-3]
Outline: as §1

[13] = tested on: SW 1573
Outline: as §1

Question: How did the relative viability [1] turn out when Clc1ccc(Nc2nnc(Cc3ccncc3)c3ccccc23)cc1 [Vatalanib] + CC(=O)c1c(C)c2cnc(Nc3ccc(N4CCNCC4)cn3)nc2n(C2CCCC2)c1=O [Palbociclib] (partner 0.5 µM) was run?
Answer: 0.415

Question: What about the relative viability ([2]; first compound 0.04 µM) of the same compound?
Answer: 0.654

Question: And the relative viability ([2]; first compound 0.1265 µM)?
Answer: 0.622

Question: What about the relative viability ([2]; first compound 0.4 µM) of the same compound?
Answer: 0.631

Question: And the relative viability ([2]; first compound 4 µM)?
Answer: 0.568

Question: What about the relative viability ([3]; first compound 0.04 µM) of the same compound?
Answer: 0.309

Question: What about the relative viability ([3]; first compound 0.1265 µM) of the same compound?
Answer: 0.318

Question: What about the relative viability ([3]; first compound 0.4 µM) of the same compound?
Answer: 0.356

Question: What about the relative viability ([3]; first compound 1.265 µM) of the same compound?
Answer: 0.294

Question: What about the relative viability ([3]; first compound 4 µM) of the same compound?
Answer: 0.279

Question: What about the relative viability ([4]; first compound 0.04 µM) of the same compound?
Answer: 0.646

Question: What about the relative viability ([4]; first compound 0.1265 µM) of the same compound?
Answer: 0.624

Question: What about the relative viability ([4]; first compound 0.4 µM) of the same compound?
Answer: 0.643

Question: What about the relative viability ([4]; first compound 1.265 µM) of the same compound?
Answer: 0.616

Question: What about the relative viability ([4]; first compound 4 µM) of the same compound?
Answer: 0.667

Question: What about the relative viability ([5]; first compound 0.04 µM) of the same compound?
Answer: 0.651

Question: What about the relative viability ([5]; first compound 0.1265 µM) of the same compound?
Answer: 0.5

Question: And the relative viability ([5]; first compound 0.4 µM)?
Answer: 0.768

Question: What about the relative viability ([5]; first compound 1.265 µM) of the same compound?
Answer: 0.528

Question: And the relative viability ([5]; first compound 4 µM)?
Answer: 0.489

Question: And the relative viability ([6]; first compound 0.04 µM)?
Answer: 0.457

Question: What about the relative viability ([6]; first compound 0.1265 µM) of the same compound?
Answer: 0.469

Question: And the relative viability ([6]; first compound 0.4 µM)?
Answer: 0.492

Question: And the relative viability ([6]; first compound 1.265 µM)?
Answer: 0.433

Question: What about the relative viability ([6]; first compound 4 µM) of the same compound?
Answer: 0.475

Question: What about the relative viability ([7]; first compound 0.04 µM) of the same compound?
Answer: 0.251

Question: What about the relative viability ([7]; first compound 0.1265 µM) of the same compound?
Answer: 0.209

Question: What about the relative viability ([7]; first compound 0.4 µM) of the same compound?
Answer: 0.205

Question: And the relative viability ([7]; first compound 1.265 µM)?
Answer: 0.268

Question: And the relative viability ([7]; first compound 4 µM)?
Answer: 0.22

Question: And the relative viability ([8]; first compound 0.04 µM)?
Answer: 0.314

Question: And the relative viability ([8]; first compound 0.1265 µM)?
Answer: 0.34

Question: And the relative viability ([8]; first compound 0.4 µM)?
Answer: 0.383

Question: What about the relative viability ([8]; first compound 1.265 µM) of the same compound?
Answer: 0.335

Question: What about the relative viability ([8]; first compound 4 µM) of the same compound?
Answer: 0.363

Question: And the relative viability ([9]; first compound 0.04 µM)?
Answer: 0.489

Question: What about the relative viability ([9]; first compound 0.1265 µM) of the same compound?
Answer: 0.507

Question: And the relative viability ([9]; first compound 0.4 µM)?
Answer: 0.46

Question: And the relative viability ([9]; first compound 1.265 µM)?
Answer: 0.579

Question: What about the relative viability ([9]; first compound 4 µM) of the same compound?
Answer: 0.593

Question: And the relative viability ([10]; first compound 0.04 µM)?
Answer: 0.139

Question: What about the relative viability ([10]; first compound 0.1265 µM) of the same compound?
Answer: 0.131

Question: What about the relative viability ([10]; first compound 0.4 µM) of the same compound?
Answer: 0.149

Question: What about the relative viability ([10]; first compound 1.265 µM) of the same compound?
Answer: 0.123

Question: What about the relative viability ([10]; first compound 4 µM) of the same compound?
Answer: 0.136

Question: What about the relative viability ([11]; first compound 0.04 µM) of the same compound?
Answer: 0.415

Question: And the relative viability ([11]; first compound 0.1265 µM)?
Answer: 0.34

Question: And the relative viability ([11]; first compound 0.4 µM)?
Answer: 0.37

Question: And the relative viability ([11]; first compound 1.265 µM)?
Answer: 0.37

Question: And the relative viability ([11]; first compound 4 µM)?
Answer: 0.386

Question: What about the relative viability ([12]; first compound 0.04 µM) of the same compound?
Answer: 0.515

Question: What about the relative viability ([12]; first compound 0.1265 µM) of the same compound?
Answer: 0.549

Question: And the relative viability ([12]; first compound 0.4 µM)?
Answer: 0.573

Question: And the relative viability ([12]; first compound 1.265 µM)?
Answer: 0.538

Question: And the relative viability ([12]; first compound 4 µM)?
Answer: 0.544

Question: What about the relative viability ([13]; first compound 0.1265 µM) of the same compound?
Answer: 0.403

Question: What about the relative viability ([13]; first compound 0.4 µM) of the same compound?
Answer: 0.461

Question: What about the relative viability ([13]; first compound 1.265 µM) of the same compound?
Answer: 0.361

Question: And the relative viability ([13]; first compound 4 µM)?
Answer: 0.368

From the supplement of paper PMC10307832
